# In US20250243180A1, “TARGETED PROTEIN DEGRADATION” (Monte Rosa Therapeutics AG, priority 2023, published 2025):
# Like-named read-outs stand apart in the source and are kept apart here.
# Key:
# NEK7 = NEK7 (Homo sapiens (Human), UniProt Q8TDX7+Q96SW2); test: NEK7 NanoBiT degradation assay in Cal51 NEK7 NanoBiT cell line; assay type: cell-based; conditions: Cal51 NEK7 NanoBiT cells, 24 hours; for Dmax: CAL-51
# Protocol: Cal51 NEK7 NanoBiT cell line was generated via CRISPR Knock-In of the HiBiT tag in NEK7 gene and stable infection with a lentivirus carrying LgBiT protein. The cell line was generated in house. For the experiment, cells were plated in 384-well white flat bottom plates (Corning, 3570BC) at 2500 cells per well using Multiflo (BioTek/Agilent) and in 25 μl volume in DMEM experimental medium: DMEM (DMEM, high glucose, HEPES, no phenol red (ThermoFisher Scientific, 21063029) supplemented with 10% FBS (Corning, 35-075-CV), 1% Penicillin/Streptomycin ((ThermoFisher Scientific, 15140-122), and 1% Endurazine (Nano-Glo Endurazine Live Cell Substrate (Promega, N2571)). Cells were incubated for 16 hours at 37° C., 5% CO2 before compound addition. For dose response determination, 2.5 nL of a compound at different concentrations (stock compound concentration range: 10 mM to 0.5 μM, final concentration range inside cell plate: 1 μM to 0.05 nM) were dispensed into the plate using an Echo® 650 liquid handling device (Backman Coulter/Labcyte). Cells were incubated at 37° C., 5% CO2 for 24 hours and then signal was read on a Pherastar FSX using “LUM plus” optic module with 4095 gain and measurement interval time 0.2 seconds.
# Analysis was performed in Genedata Screener (Genedata, Basel, CH). Luminescence response (R) was calculated by the formula: response=100*(S−N)/(P−N) where S is the signal of the well, N and P the mean negative and positive control values respectively of the same plate. The luminescence response was then fitted in Genedata using a 4-parameter antagonist logistic fit (hill slope unconstrained, EC50>0, top/bottom unconstrained).
# CRBN-DDB1 = CRBN-DDB1 (Homo sapiens (Human), UniProt Q96SW2); test: Compound binding to CRBN by HTRF assay
# CRBN-DDB1, sequence (Q96SW2 whole entry): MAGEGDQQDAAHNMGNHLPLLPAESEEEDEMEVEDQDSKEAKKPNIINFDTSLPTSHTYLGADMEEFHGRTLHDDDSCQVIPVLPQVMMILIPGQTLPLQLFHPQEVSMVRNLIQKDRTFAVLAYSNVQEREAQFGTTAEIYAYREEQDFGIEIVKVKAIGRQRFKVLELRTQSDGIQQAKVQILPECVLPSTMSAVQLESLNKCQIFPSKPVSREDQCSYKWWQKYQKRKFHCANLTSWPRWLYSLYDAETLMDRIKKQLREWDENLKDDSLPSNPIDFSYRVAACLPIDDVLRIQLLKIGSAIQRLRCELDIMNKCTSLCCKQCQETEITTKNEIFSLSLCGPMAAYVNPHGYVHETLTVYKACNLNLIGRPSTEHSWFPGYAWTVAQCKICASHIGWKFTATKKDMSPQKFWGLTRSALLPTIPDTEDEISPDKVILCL
# CRBN-DDB1, sequence (Q16531 whole entry partner): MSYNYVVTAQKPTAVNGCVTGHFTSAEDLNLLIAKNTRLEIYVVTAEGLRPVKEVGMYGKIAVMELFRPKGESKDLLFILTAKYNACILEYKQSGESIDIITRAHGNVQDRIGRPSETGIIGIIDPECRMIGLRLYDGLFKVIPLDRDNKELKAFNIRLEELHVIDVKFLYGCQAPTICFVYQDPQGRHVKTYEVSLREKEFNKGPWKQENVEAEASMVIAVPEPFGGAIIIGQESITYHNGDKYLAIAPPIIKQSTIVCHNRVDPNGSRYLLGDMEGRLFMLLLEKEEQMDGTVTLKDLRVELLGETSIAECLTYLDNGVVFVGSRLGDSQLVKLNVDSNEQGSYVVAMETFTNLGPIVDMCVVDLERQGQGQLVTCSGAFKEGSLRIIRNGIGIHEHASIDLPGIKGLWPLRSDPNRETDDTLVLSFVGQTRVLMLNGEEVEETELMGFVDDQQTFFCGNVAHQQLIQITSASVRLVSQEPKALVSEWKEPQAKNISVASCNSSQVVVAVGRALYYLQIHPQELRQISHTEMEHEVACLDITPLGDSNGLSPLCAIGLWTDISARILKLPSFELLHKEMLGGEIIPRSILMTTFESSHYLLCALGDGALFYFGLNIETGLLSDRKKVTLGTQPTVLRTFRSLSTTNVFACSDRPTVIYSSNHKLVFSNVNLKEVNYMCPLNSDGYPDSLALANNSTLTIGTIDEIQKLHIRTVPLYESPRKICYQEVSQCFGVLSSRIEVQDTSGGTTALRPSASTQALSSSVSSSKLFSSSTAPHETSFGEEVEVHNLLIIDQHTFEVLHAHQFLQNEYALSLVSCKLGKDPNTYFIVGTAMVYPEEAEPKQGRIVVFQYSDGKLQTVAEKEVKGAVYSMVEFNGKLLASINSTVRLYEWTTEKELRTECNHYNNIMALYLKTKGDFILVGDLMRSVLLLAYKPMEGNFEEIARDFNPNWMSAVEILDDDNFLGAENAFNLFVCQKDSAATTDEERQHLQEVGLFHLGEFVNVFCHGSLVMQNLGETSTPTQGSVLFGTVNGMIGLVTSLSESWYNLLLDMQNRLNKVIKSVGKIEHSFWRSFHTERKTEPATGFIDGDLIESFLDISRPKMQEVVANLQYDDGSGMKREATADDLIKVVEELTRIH
# Protocol: Compound activity was monitored in a Homogenous Time-Resolved Fluorescence (HTRF) assay using 1-[5-({2-[2-(2-{[2-(2,6-dioxopiperidin-3-yl)-1,3-dioxo-2,3-dihydro-1H-isoindol-4-yl]oxy}acetamido)ethoxy]ethyl}carbamoyl)pentyl]-3,3-dimethyl-2-[(1E,3E)-5-[(2E)-1,3,3-trimethyl-5-sulfo-2,3-dihydro-1H-indol-2-ylidene]penta-1,3-dien-1-yl]-3H-indol-1-ium-5-sulfonate as a fluorescent probe. Biochemical assays were conducted in Greiner white 384 well HiBase plates (Cat. No 784075-25) in 20 μL total volume. A one pot detection solution of CRBN-DDB1 (2.5 nM), Anti-His Terbium Cryptate Gold (1×, PerkinElmer Cat. #: 61HI2TLB), and Cy5-Thalidomide (100 nM, Tenova Cat.: T52461) was prepared in 20 mM HEPES, 20 mM NaCl, 0.2 mM TCEP, 0.2 mM EDTA, and 0.005% Tween20 was dispensed to each assay plate. Compounds were stored in dry, ambient temperatures at 10 mM. An 11-point, 1:3 dilution series was prepared from 10 mM stock concentrations in Echo-compatible LDV plates. 10 nL of each compound dilution series was dispensed into assays wells using an Echo 650 (Labcyte Inc. USA). 20 nL of 10 mM Lenalidomide was transferred into the active-control wells for the assay and 20 nL of DMSO was transferred into the neutral-control wells. The assay was then allowed to incubate for 30 min at ambient temperature after transferring compound. Plate measurements were taken on a Pherastar FSX (BMG Labtech, Germany) using the HTRF Red filter (Ex. 337 nm, em1: 620 nm, em2: 665 nm) (Flashes: 50, Integration time: 60-400 us, Z-height: 10 mm, Ratio-multiplier: 10,000). The HTRF signal was then subsequently normalized to the neutral and active controls. Analysis and EC50 values were derived using KNIME analytics (KNIME Zurich) transformation and fitting within Collaborative Drug Discovery (Collaborative Drug Discovery USA). Ki was derived from the geometric mean of the EC50 values using the Cheng-Prustoff transformation.
# [1] = NEK7 degradation, read-out: NanoBiT Dmax
# [2] = NEK7 degradation, read-out: NanoBiT DC50
# NEK7, sequence (Q8TDX7 whole entry): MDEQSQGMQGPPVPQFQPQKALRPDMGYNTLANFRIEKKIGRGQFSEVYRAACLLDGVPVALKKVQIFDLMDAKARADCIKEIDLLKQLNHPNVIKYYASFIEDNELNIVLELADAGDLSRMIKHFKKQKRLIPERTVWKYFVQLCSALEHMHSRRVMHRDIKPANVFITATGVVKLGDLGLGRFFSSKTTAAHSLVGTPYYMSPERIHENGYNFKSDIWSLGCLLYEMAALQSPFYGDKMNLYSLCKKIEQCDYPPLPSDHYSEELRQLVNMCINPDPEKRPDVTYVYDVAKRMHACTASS
# NEK7, sequence (Q96SW2 whole entry): as the sequence (Q96SW2 whole entry) above
# NEK7, sequence (Q16531 2-1140 partner): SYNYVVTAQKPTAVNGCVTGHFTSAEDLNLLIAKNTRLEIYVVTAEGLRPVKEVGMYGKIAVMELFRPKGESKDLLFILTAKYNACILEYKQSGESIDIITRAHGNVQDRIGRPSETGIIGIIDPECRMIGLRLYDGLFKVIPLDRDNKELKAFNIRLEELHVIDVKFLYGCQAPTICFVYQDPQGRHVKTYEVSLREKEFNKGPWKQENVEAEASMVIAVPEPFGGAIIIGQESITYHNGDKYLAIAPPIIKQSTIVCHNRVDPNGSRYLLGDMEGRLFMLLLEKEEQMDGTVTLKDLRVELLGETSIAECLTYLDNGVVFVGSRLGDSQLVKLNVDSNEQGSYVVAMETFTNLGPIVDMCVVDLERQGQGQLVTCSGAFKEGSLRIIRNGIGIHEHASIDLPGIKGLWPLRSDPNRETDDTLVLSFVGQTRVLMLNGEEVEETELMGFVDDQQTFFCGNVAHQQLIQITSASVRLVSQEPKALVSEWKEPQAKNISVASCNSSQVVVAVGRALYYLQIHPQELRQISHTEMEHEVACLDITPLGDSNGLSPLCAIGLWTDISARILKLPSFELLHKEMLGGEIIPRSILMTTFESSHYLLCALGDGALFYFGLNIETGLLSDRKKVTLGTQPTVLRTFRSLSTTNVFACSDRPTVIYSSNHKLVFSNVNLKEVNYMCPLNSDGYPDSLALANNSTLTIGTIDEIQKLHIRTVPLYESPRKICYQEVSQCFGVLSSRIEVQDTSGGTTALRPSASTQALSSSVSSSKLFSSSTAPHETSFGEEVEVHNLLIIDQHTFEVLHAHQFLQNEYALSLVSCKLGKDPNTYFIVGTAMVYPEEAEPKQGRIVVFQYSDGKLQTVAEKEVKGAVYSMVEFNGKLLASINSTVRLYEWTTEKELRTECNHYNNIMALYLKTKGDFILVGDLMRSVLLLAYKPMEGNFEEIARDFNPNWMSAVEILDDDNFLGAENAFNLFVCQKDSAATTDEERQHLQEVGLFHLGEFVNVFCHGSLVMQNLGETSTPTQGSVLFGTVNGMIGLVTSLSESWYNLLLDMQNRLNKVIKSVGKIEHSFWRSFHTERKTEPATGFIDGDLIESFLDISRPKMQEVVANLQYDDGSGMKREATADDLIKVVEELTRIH
Dmax (NEK7; read-out: NEK7 NanoBiT Dmax) [%],Dmax (NEK7; [1]) [%],DC50 (NEK7; read-out: NEK7 NanoBiT DC50) [nM],DC50 (NEK7; [2]) [nM],EC50 (CRBN-DDB1) [nM],"EC50 (CRBN-DDB1; HTRF class, Cereblon binding) [nM]",Compound
59,50 to 75,578,100 to 1000,4170,> 1000,"CC(C)(C(=O)NCc1cc(Cl)c([C@@H]2CCC(=O)NC2=O)c(Cl)c1)c1ncccn1 (single isomer, unassigned) [Compound 179]"
81,> 75,16,≤ 100,120,100 to 1000,"CC(C)(C(=O)NCc1cc(Cl)c([C@H]2CCC(=O)NC2=O)c(Cl)c1)c1ncccn1 (single isomer, unassigned) [Compound 180]"
77,> 75,32,≤ 100,90,≤ 100,"Cc1nnc(C(C)(C)C(=O)NCc2cc(Cl)c([C@@H]3CCC(=O)NC3=O)c(Cl)c2)o1 (single isomer, unassigned) [Compound 224]"
49,≤ 50,1000,> 1000,6560,> 1000,"Cc1nnc(C(C)(C)C(=O)NCc2cc(Cl)c([C@H]3CCC(=O)NC3=O)c(Cl)c2)o1 (single isomer, unassigned) [Compound 225]"
9,≤ 50,1000,> 1000,≥ 10000,> 1000,"Cc1cnc(C(C)(C)C(=O)NCc2cc(Cl)c([C@]3(F)CCC(=O)NC3=O)c(Cl)c2)nc1 (single isomer, unassigned) [Compound 243]"
19,≤ 50,1000,> 1000,220,100 to 1000,"Cc1cnc(C(C)(C)C(=O)NCc2cc(Cl)c([C@@]3(F)CCC(=O)NC3=O)c(Cl)c2)nc1 (single isomer, unassigned) [Compound 244]"
70,50 to 75,136,100 to 1000,250,100 to 1000,"CC(C)(C(=O)NCc1cc(Cl)c([C@]2(F)CCC(=O)NC2=O)c(Cl)c1)c1ccccc1 (single isomer, unassigned) [Compound 273]"
3,≤ 50,1000,> 1000,≥ 10000,> 1000,"CC(C)(C(=O)NCc1cc(Cl)c([C@@]2(F)CCC(=O)NC2=O)c(Cl)c1)c1ccccc1 (single isomer, unassigned) [Compound 274]"
49,≤ 50,635,100 to 1000,–,–,CC(C)(C(=O)NCc1cc(Cl)c(C2CCC(=O)NC2=O)c(Cl)c1)c1ccc(CC#N)nn1 (centres unmarked) [Compound 214]

# The remaining lines, values behind:
Compound,Dmax (NEK7; read-out: NEK7 NanoBiT Dmax) [%],Dmax (NEK7; [1]) [%],DC50 (NEK7; read-out: NEK7 NanoBiT DC50) [nM],DC50 (NEK7; [2]) [nM],EC50 (CRBN-DDB1) [nM],"EC50 (CRBN-DDB1; HTRF class, Cereblon binding) [nM]"
"CC(C)(C(=O)NCc1cc(Cl)c([C@@H]2CCC(=O)NC2=O)c(Cl)c1)c1ncc(C#N)cn1 (single isomer, unassigned) [Compound 152]",95,> 75,2,≤ 100,240,100 to 1000
"CC(C)(C(=O)NCc1cc(Cl)c([C@H]2CCC(=O)NC2=O)c(Cl)c1)c1ncc(C#N)cn1 (single isomer, unassigned) [Compound 153]",90,> 75,53,≤ 100,≥ 10000,> 1000
"Cc1cnc(C(C)(C)C(=O)NCc2cc(Cl)c([C@@H]3CCC(=O)NC3=O)c(Cl)c2)nc1 (single isomer, unassigned) [Compound 154]",89,> 75,4,≤ 100,180,100 to 1000
"Cc1cnc(C(C)(C)C(=O)NCc2cc(Cl)c([C@H]3CCC(=O)NC3=O)c(Cl)c2)nc1 (single isomer, unassigned) [Compound 155]",75,50 to 75,186,100 to 1000,≥ 10000,> 1000
"CC(C)(C(=O)NCc1cc(Cl)c(C2CCC(=O)NC2=O)c(Cl)c1)c1ncc(C2CC2)cn1 (centres unmarked) [Compound 1, 2-(5-cyclopropylpyrimidin-2-yl)-N-(3,5-dichloro-4-(2,6-dioxopiperidin-3-yl)benzyl)-2-methylpropan-amide]",89,> 75,9,≤ 100,150,100 to 1000
CC(C)(C(=O)NCc1ccc(C2CCC(=O)NC2=O)c(Cl)c1)c1ccc(OC(F)(F)F)cc1 (centres unmarked) [Compound 100],91,> 75,45,≤ 100,–,–
CC(C)(C(=O)NCc1ccc(C2CCC(=O)NC2=O)c(Cl)c1)c1ccc(Cl)cc1 (centres unmarked) [Compound 101],95,> 75,5,≤ 100,–,–
CC1(C(=O)NCc2ccc(C3CCC(=O)NC3=O)c(Cl)c2)CCc2ccccc2C1 (centres unmarked) [Compound 102],86,> 75,51,≤ 100,–,–
CC(C)(C(=O)NCc1ccc(C2CCC(=O)NC2=O)c(Cl)c1)c1cccc(C(F)(F)F)n1 (centres unmarked) [Compound 104],80,> 75,122,100 to 1000,–,–
CC(C)(C(=O)NCc1ccc(C2CCC(=O)NC2=O)c(Cl)c1)c1ccc(Cl)nc1 (centres unmarked) [Compound 105],84,> 75,58,≤ 100,–,–
Cc1noc(C)c1C(C)(C)C(=O)NCc1cc(Cl)c(C2CCC(=O)NC2=O)c(Cl)c1 (centres unmarked) [Compound 112],40,≤ 50,1000,> 1000,–,–
CC(C)(C(=O)NCc1cc(Cl)c(C2CCC(=O)NC2=O)c(Cl)c1)c1cscn1 (centres unmarked) [Compound 113],61,50 to 75,151,100 to 1000,–,–
CC(C)(C(=O)NCc1cc(Cl)c(C2CCC(=O)NC2=O)c(Cl)c1)c1cncs1 (centres unmarked) [Compound 114],69,50 to 75,52,≤ 100,–,–
CC(C)(C(=O)NCc1cc(Cl)c(C2CCC(=O)NC2=O)c(Cl)c1)c1cc[nH]n1 (centres unmarked) [Compound 115],76,> 75,43,≤ 100,–,–
Cc1cc(C(C)(C)C(=O)NCc2cc(Cl)c(C3CCC(=O)NC3=O)c(Cl)c2)nn1C (centres unmarked) [Compound 116],80,> 75,20,≤ 100,–,–
Cn1ccc(C(C)(C)C(=O)NCc2cc(Cl)c(C3CCC(=O)NC3=O)c(Cl)c2)n1 (centres unmarked) [Compound 117],74,50 to 75,51,≤ 100,–,–
CC(C)(C(=O)NCc1cc(Cl)c(C2CCC(=O)NC2=O)c(Cl)c1)c1c[nH]cn1 (centres unmarked) [Compound 118],48,≤ 50,760,100 to 1000,–,–
Cn1cnnc1C(C)(C)C(=O)NCc1cc(Cl)c(C2CCC(=O)NC2=O)c(Cl)c1 (centres unmarked) [Compound 119],45,≤ 50,1000,> 1000,–,–
